Assay results reported in the supplement of paper PMC10307832.

Key:
Assay in all cases: relative viability (nuclei count vs DMSO), 5 days (fraction); higher = more cells survive
NCI-H596 = test system: NCI-H596
Method in brief: (§1)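 A single step with final 0.05% Triton X-100, 1% formaldehyde and 1 ug/ml Hoechst fixed the cells and stained nuclei 5 days after treatment. Lung cancer cell lines in 1536-well plates had been treated by pin tool the day after seeding with one drug alone or a fixed anchor-drug dose plus five library-drug doses (not always all listed) in √10 steps, and nuclei were counted on 4× images. Relative viability is the ratio of nuclei in treated wells to nuclei in vehicle wells, taken as the median of duplicate plates.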

NCI-H1755 = test system: NCI-H1755
Method in brief: as §1

HARA = test system: HARA
Method in brief: as §1

NCI-H1734 = test system: NCI-H1734
Method in brief: as §1

COR-L23 = test system: COR-L23
Method in brief: as §1

NCI-H2347 = test system: NCI-H2347
Method in brief: as §1

NCI-H441 = test system: NCI-H441
Method in brief: as §1

HCC-366 = test system: HCC-366
Method in brief: as §1

NCI-H1437 = test system: NCI-H1437
Method in brief: as §1

SK-LU-1 = test system: SK-LU-1
Method in brief: as §1

CAL-12T = test system: CAL-12T
Method in brief: as §1

HOP-62 = test system: HOP-62
Method in brief: as §1

PC-3 [JPC-3] = test system: PC-3 [JPC-3]
Method in brief: as §1

RERF-LC-KJ = test system: RERF-LC-KJ
Method in brief: as §1

NCI-H1650 = test system: NCI-H1650
Method in brief: as §1

NCI-H3122 = test system: NCI-H3122
Method in brief: as §1

NCI-H1651 = test system: NCI-H1651
Method in brief: as §1

LK-2 = test system: LK-2
Method in brief: as §1

UMC-11 = test system: UMC-11
Method in brief: as §1

NCI-H727 = test system: NCI-H727
Method in brief: as §1

ABC-1 = test system: ABC-1
Method in brief: as §1

EMC-BAC-2 = test system: EMC-BAC-2
Method in brief: as §1

SMILES: Cc1cn(-c2cc(NC(=O)c3ccc(C)c(Nc4nccc(-c5cccnc5)n4)c3)cc(C(F)(F)F)c2)cn1 [Nilotinib] + O=C(c1cc(Cc2n[nH]c(=O)c3ccccc23)ccc1F)N1CCN(C(=O)C2CC2)CC1 [Olaparib] (partner 8 µM)
- relative viability (NCI-H596; first compound 0.001 µM): 0.651
- relative viability (NCI-H596; first compound 0.003162 µM): 0.702
- relative viability (NCI-H596; first compound 0.01 µM): 0.711
- relative viability (NCI-H596; first compound 0.03162 µM): 0.646
- relative viability (NCI-H596; first compound 0.1 µM): 0.671
- relative viability (NCI-H1755; first compound 0.001 µM): 0.839
- relative viability (NCI-H1755; first compound 0.003162 µM): 1.02
- relative viability (NCI-H1755; first compound 0.01 µM): 0.953
- relative viability (NCI-H1755; first compound 0.03162 µM): 0.901
- relative viability (NCI-H1755; first compound 0.1 µM): 0.784
- relative viability (HARA; first compound 0.001 µM): 0.639
- relative viability (HARA; first compound 0.003162 µM): 0.867
- relative viability (HARA; first compound 0.01 µM): 0.676
- relative viability (HARA; first compound 0.03162 µM): 0.535
- relative viability (HARA; first compound 0.1 µM): 0.747
- relative viability (NCI-H1734; first compound 0.001 µM): 0.576
- relative viability (NCI-H1734; first compound 0.003162 µM): 0.656
- relative viability (NCI-H1734; first compound 0.01 µM): 0.689
- relative viability (NCI-H1734; first compound 0.03162 µM): 0.543
- relative viability (NCI-H1734; first compound 0.1 µM): 0.497
- relative viability (COR-L23; first compound 0.001 µM): 0.356
- relative viability (COR-L23; first compound 0.003162 µM): 0.319
- relative viability (COR-L23; first compound 0.01 µM): 0.396
- relative viability (COR-L23; first compound 0.03162 µM): 0.306
- relative viability (COR-L23; first compound 0.1 µM): 0.288
- relative viability (NCI-H2347; first compound 0.001 µM): 0.559
- relative viability (NCI-H2347; first compound 0.003162 µM): 0.664
- relative viability (NCI-H2347; first compound 0.01 µM): 0.633
- relative viability (NCI-H2347; first compound 0.03162 µM): 0.57
- relative viability (NCI-H2347; first compound 0.1 µM): 0.493
- relative viability (NCI-H441; first compound 0.001 µM): 0.419
- relative viability (NCI-H441; first compound 0.003162 µM): 0.807
- relative viability (NCI-H441; first compound 0.01 µM): 0.533
- relative viability (NCI-H441; first compound 0.03162 µM): 0.431
- relative viability (NCI-H441; first compound 0.1 µM): 0.534
- relative viability (HCC-366; first compound 0.001 µM): 0.272
- relative viability (HCC-366; first compound 0.003162 µM): 0.327
- relative viability (HCC-366; first compound 0.01 µM): 0.339
- relative viability (HCC-366; first compound 0.03162 µM): 0.281
- relative viability (HCC-366; first compound 0.1 µM): 0.281
- relative viability (NCI-H1437; first compound 0.001 µM): 0.603
- relative viability (NCI-H1437; first compound 0.003162 µM): 0.687
- relative viability (NCI-H1437; first compound 0.01 µM): 0.654
- relative viability (NCI-H1437; first compound 0.03162 µM): 0.548
- relative viability (NCI-H1437; first compound 0.1 µM): 0.559
- relative viability (SK-LU-1; first compound 0.001 µM): 0.408
- relative viability (SK-LU-1; first compound 0.003162 µM): 0.469
- relative viability (SK-LU-1; first compound 0.01 µM): 0.541
- relative viability (SK-LU-1; first compound 0.03162 µM): 0.354
- relative viability (SK-LU-1; first compound 0.1 µM): 0.444
- relative viability (CAL-12T; first compound 0.001 µM): 0.648
- relative viability (CAL-12T; first compound 0.003162 µM): 0.677
- relative viability (CAL-12T; first compound 0.01 µM): 0.738
- relative viability (CAL-12T; first compound 0.03162 µM): 0.67
- relative viability (CAL-12T; first compound 0.1 µM): 0.793
- relative viability (HOP-62; first compound 0.003162 µM): 0.38
- relative viability (HOP-62; first compound 0.01 µM): 0.393
- relative viability (HOP-62; first compound 0.03162 µM): 0.403
- relative viability (HOP-62; first compound 0.1 µM): 0.352
- relative viability (PC-3 [JPC-3]; first compound 0.001 µM): 1.05
- relative viability (PC-3 [JPC-3]; first compound 0.01 µM): 1.35
- relative viability (PC-3 [JPC-3]; first compound 0.03162 µM): 1.16
- relative viability (PC-3 [JPC-3]; first compound 0.1 µM): 0.829
- relative viability (RERF-LC-KJ; first compound 0.001 µM): 0.816
- relative viability (RERF-LC-KJ; first compound 0.003162 µM): 1.03
- relative viability (RERF-LC-KJ; first compound 0.01 µM): 0.976
- relative viability (RERF-LC-KJ; first compound 0.03162 µM): 0.826
- relative viability (RERF-LC-KJ; first compound 0.1 µM): 0.892
- relative viability (NCI-H1650; first compound 0.001 µM): 0.776
- relative viability (NCI-H1650; first compound 0.003162 µM): 0.948
- relative viability (NCI-H1650; first compound 0.01 µM): 0.777
- relative viability (NCI-H1650; first compound 0.03162 µM): 0.756
- relative viability (NCI-H1650; first compound 0.1 µM): 1.08
- relative viability (NCI-H3122; first compound 0.001 µM): 0.591
- relative viability (NCI-H3122; first compound 0.003162 µM): 0.688
- relative viability (NCI-H3122; first compound 0.01 µM): 0.848
- relative viability (NCI-H3122; first compound 0.03162 µM): 0.515
- relative viability (NCI-H3122; first compound 0.1 µM): 0.721
- relative viability (NCI-H1651; first compound 0.001 µM): 0.173
- relative viability (NCI-H1651; first compound 0.003162 µM): 0.187
- relative viability (NCI-H1651; first compound 0.01 µM): 0.168
- relative viability (NCI-H1651; first compound 0.03162 µM): 0.156
- relative viability (NCI-H1651; first compound 0.1 µM): 0.181
- relative viability (LK-2; first compound 0.001 µM): 0.673
- relative viability (LK-2; first compound 0.003162 µM): 0.947
- relative viability (LK-2; first compound 0.01 µM): 0.839
- relative viability (LK-2; first compound 0.03162 µM): 0.453
- relative viability (LK-2; first compound 0.1 µM): 0.681
- relative viability (UMC-11; first compound 0.001 µM): 0.39
- relative viability (UMC-11; first compound 0.003162 µM): 0.384
- relative viability (UMC-11; first compound 0.01 µM): 0.337
- relative viability (UMC-11; first compound 0.03162 µM): 0.341
- relative viability (UMC-11; first compound 0.1 µM): 0.279
- relative viability (NCI-H727; first compound 0.001 µM): 0.574
- relative viability (NCI-H727; first compound 0.003162 µM): 0.847
- relative viability (NCI-H727; first compound 0.01 µM): 0.658
- relative viability (NCI-H727; first compound 0.03162 µM): 0.732
- relative viability (NCI-H727; first compound 0.1 µM): 0.732
- relative viability (ABC-1; first compound 0.001 µM): 0.671
- relative viability (ABC-1; first compound 0.003162 µM): 0.873
- relative viability (ABC-1; first compound 0.01 µM): 0.778
- relative viability (ABC-1; first compound 0.03162 µM): 0.828
- relative viability (ABC-1; first compound 0.1 µM): 0.673
- relative viability (EMC-BAC-2; first compound 0.001 µM): 0.43
- relative viability (EMC-BAC-2; first compound 0.003162 µM): 0.448
- relative viability (EMC-BAC-2; first compound 0.01 µM): 0.49
- relative viability (EMC-BAC-2; first compound 0.03162 µM): 0.497
- relative viability (EMC-BAC-2; first compound 0.1 µM): 0.521
